Here are results for 66 compounds from patent publication US20090118286A1, “Heterobicyclic Acrylamides” (Bayer Cropscience AG, priority 2005, published 2009).

A short description of one series: log P determination by HPLC (EEC Directive 79/831 Annex V.A8, gradient method). The class given is physicochemical.
Conditions: not given
As for `O=C(/C=C/c1c(-c2ccccc2Cl)nc2sc(C(F)(F)F)nn12)NCCc1ccc(Cl)cc1` [Example 0199], the “Physical data (logP)” value stood at 4.09.
As to `CCC(NC(=O)C=Cc1c(-c2ccccc2C)nc2sc(C(F)(F)F)nn12)C1CCCCC1` (stereo not drawn) [Example 0267], the “Physical data: log P” value is 4.92.
`O=C(O)/C=C/c1c(-c2ccccc2F)nc2sc(C(F)(F)F)nn12` [VA-8]: the “Physical data (logP)” value was 2.55.
On to `CC(NC(=O)/C=C/c1c(-c2ccc(F)cc2Cl)nc2sc(C(F)(F)C(F)(F)F)nn12)C(F)(F)F` (racemic) [Example 0974], for which the “Physical data: logP” value is recorded as 4.19.
On to `CON(C)C(=O)/C=C/c1c(-c2ccc(Cl)cc2Cl)nc2sc(C(F)(F)F)nn12` [Example 0572], for which the “Physical data: log P” value turned out to be 3.8.
On the same count and under the same terms, with `O=C(/C=C/c1c(-c2ccc(F)cc2)nc2sc(C(F)(F)F)nn12)NC1CCC1` [Example 0305] the figure was 3.41.
For the compound `CC(NC(=O)/C=C/c1c(-c2ccccc2Cl)nc2sc(C(F)(F)C(F)(F)F)nn12)C(F)(F)F` (racemic) [Example 0961], the “Physical data: logP” value came to 4.07.
With `Cc1ccccc1-c1nc2sc(C(F)(F)F)nn2c1/C=C/C(=O)NOCC1CC1` [Example 0282], the “Physical data: log P” value is given as 3.26.
Consider `O=Cc1c(-c2ccc(-c3ccccc3)cc2)nc2sc(C(F)(F)F)nn12` [IVA118], for which the “Physical data (logP)” value was 4.08.
For `COc1ccc(-c2nc3sc(C(F)(F)F)nn3c2/C=C/C(=O)NC2CC2)cc1OC` [Example 0656], the “Physical data: logP” value is listed as 2.64.
With `Cc1csc2nc(-c3ccccc3Cl)c(/C=C/C(=O)NC(C)C)n12` [Example 0890], the “Physical data: logP” value was 2.09.
Same read-out and setting: with `O=C(/C=C/c1c(-c2ccccc2Cl)nc2sc(-c3ccc(C(F)(F)F)cc3)nn12)NC1CCC1` [Example 0852] the figure was 4.21.
In the case of `COCc1nn2c(/C=C/C(=O)NCCC(C)C)c(-c3ccccc3Cl)nc2s1` [Example 0820], the “Physical data: logP” value is reported as 3.12.
The same measure, in the same setting: for `CC(C)(C)CNC(=O)/C=C/c1c(-c2ccccc2Cl)nc2sc(C(C)(C)C)nn12` [Example 0797] the value was 4.06.
Still for that read-out and setting: with `CC(C)NC(=O)/C=C/c1c(-c2ccc(Cl)nc2)nc2sc(C(F)(F)F)nn12` [Example 0933] the figure was 2.85.
On to `O=C(/C=C/c1c(-c2ccc(F)cc2)nc2sc(C(F)(F)F)nn12)NC1CC1` [Example 0304], for which the “Physical data: log P” value was found to be 2.95.
For the compound `CN(C)C(=O)/C=C/c1c(-c2ccc(Cl)cc2)nc2sc(C(F)(F)F)nn12` [Example 0065], the “Physical data (logP)” value amounted to 3.42.
Consider `CC(NC(=O)/C=C/c1c(-c2cccnc2Cl)nc2sc(C(F)(F)F)nn12)C(F)(F)F` (racemic) [Example 0948], for which the “Physical data: logP” value was 2.76.
As for `O=C(O)/C=C/c1c(-c2cncc(Br)c2)nc2sc(C(F)(F)F)nn12` [VA117], the “Physical data (logP)” value came out at 2.54.
`CCC(C)NC(=O)/C=C/c1c(-c2ccccc2Cl)nc2sc(C(C)(C)C)nn12` (stereo not drawn) [Example 0803]: the “Physical data: logP” value was found to be 3.67.
As to `C=CCN(C)C(=O)/C=C/c1c(-c2cccc(Cl)c2)nc2sc(C(F)(F)F)nn12` [Example 0137], the “Physical data (logP)” value came out at 4.0.
Regarding `CCC(NC(=O)/C=C/c1c(-c2ccc(OC)c(OC)c2)nc2sc(C(F)(F)F)nn12)c1ccccc1` (stereo not drawn) [Example 0684], the “Physical data: logP” value stood at 3.76.
On the same count and under the same terms, for `CCC(C)NC(=O)/C=C/c1c(-c2ccccc2Cl)nc2sc(COC)nn12` (stereo not drawn) [Example 0825] the value was 2.71.
On to `CCN(CC)C(=O)/C=C/c1c(-c2ccccc2F)nc2sc(C(F)(F)F)nn12` [Example 0505], for which the “Physical data: log P” value turned out to be 3.45.
Consider `O=C(/C=C/c1c(-c2ccc(Cl)cc2Cl)nc2sc(C(F)(F)F)nn12)N1CCCCC1` [Example 0574], for which the “Physical data: log P” value is reported as 4.31.
With `Cc1cn2c(/C=C/C(=O)NCC(F)(F)F)c(-c3ccccc3Cl)nc2s1` [Example 0866], the “Physical data: logP” value turned out to be 2.64.
As to `O=C(/C=C/c1c(-c2ccc(Cl)cc2)nc2sc(C(F)(F)F)nn12)N1CCCCC1` [Example 0071], the “Physical data (logP)” value is reported as 4.31.
As to `CC(NC(=O)/C=C/c1c(-c2sccc2Cl)nc2sc(C(F)(F)F)nn12)C(F)(F)F` (racemic) [Example 0922], the “Physical data: logP” value is 3.65.
In the case of `CC(NC(=O)/C=C/c1c(-c2ccccc2Cl)nc2sc(C(F)(F)F)nn12)C(F)(F)F` (single isomer, unassigned) [Example 0184], the “Physical data (logP)” value turned out to be 3.63.
As to `COc1ccc(-c2nc3sc(C(F)(F)F)nn3c2/C=C/C(=O)NC2CCC2)cc1OC` [Example 0657], the “Physical data: logP” value turned out to be 3.03.
Same read-out and setting: for `CCC(C)NC(=O)/C=C/c1c(-c2ccccc2Cl)nc2scc(C)n12` (stereo not drawn) [Example 0891] the value was 2.35; for `CC(C)CCNC(=O)/C=C/c1c(-c2ccccc2Cl)nc2sc(-c3ccc(C(F)(F)F)cc3)nn12` [Example 0842], 4.72.
Same read-out and setting: for `Cc1csc2nc(-c3ccccc3Cl)c(/C=C/C(=O)Nc3ccc(Cl)cc3)n12` [Example 0899] the value was 3.24.
For the compound `COCC(C)NC(=O)/C=C/c1c(-c2ccccc2C)nc2sc(C(F)(F)F)nn12` (racemic) [Example 0240], the “Physical data: log P” value came out at 3.07.
For the compound `CC(NC(=O)/C=C/c1c(-c2ccc(Cl)nc2)nc2sc(C(F)(F)F)nn12)C(F)(F)F` (racemic) [Example 0935], the “Physical data: logP” value is recorded as 3.32.
Turning to `CN(C)C(=O)/C=C/c1c(-c2ccc(Cl)cc2Cl)nc2sc(C(F)(F)F)nn12` [Example 0568], the “Physical data: log P” value is 3.46.
As to `O=C(/C=C/c1c(-c2ccc(F)cc2)nc2sc(C(F)(F)F)nn12)N1CCCCC1` [Example 0364], the “Physical data: log P” value stood at 3.85.
For the compound `Cc1ccccc1-c1nc2sc(C(F)(F)F)nn2c1/C=C/C(=O)NC(C)(C)C` [Example 0231], the “Physical data: log P” value worked out at 3.85.
Still for that read-out and setting: for `CCC(NC(=O)C=Cc1c(-c2ccc(F)cc2)nc2sc(C(F)(F)F)nn12)C1CCCCC1` (stereo not drawn) [Example 0338] the value was 4.92; for `CCN(CC)C(=O)/C=C/c1c(-c2ccc(F)cc2)nc2sc(C(F)(F)F)nn12` [Example 0363], 3.72.
`Cc1csc2nc(-c3ccccc3Cl)c(/C=C/C(=O)NCCC(C)C)n12` [Example 0886]: the “Physical data: logP” value is reported as 2.75.
Same read-out and setting: for `CC(C)NC(=O)/C=C/c1c(-c2ccccc2Cl)nc2sc(C(F)(F)F)cn12` [Example 0906] the value was 3.23.
For the compound `O=C(/C=C/c1c(-c2cccc(Cl)c2)nc2sc(C(F)(F)F)nn12)NC1CCCC1` [Example 0084], the “Physical data (logP)” value is listed as 4.13.
Turning to `Cc1ccccc1-c1nc2sc(C(F)(F)F)nn2c1/C=C/C(=O)NCC1CC1` [Example 0237], the “Physical data: log P” value was 3.37.
With `O=C(/C=C/c1c(-c2cccc(C(F)(F)F)c2)nc2sc(C(F)(F)F)nn12)NOCC1CC1` [Example 0424], the “Physical data: log P” value amounted to 3.81.
Consider `CC(C)NC(=O)/C=C/c1c(-c2ccccc2Cl)nc2sc(C(F)(F)C(F)(F)F)nn12` [Example 0959], for which the “Physical data: logP” value is reported as 3.66.
The same measure, in the same setting: for `O=C(/C=C/c1c(-c2ccccc2Cl)nc2sc(-c3ccc(C(F)(F)F)cc3)nn12)NC1CCCCC1` [Example 0854] the value was 4.76.
As to `CCNC(=O)/C=C/c1c(-c2ccc(Cl)cc2)nc2sc(C(F)(F)F)nn12` [Example 0006], the “Physical data (logP)” value was found to be 3.25.
Same read-out and setting: with `O=Cc1c(-c2ccccc2Cl)nc2sc(C(F)(F)C(F)(F)F)nn12` [IVA111] the figure was 3.47.
Take `CC(C)NC(=O)/C=C/c1c(-c2nccs2)nc2sc(C(F)(F)C(F)(F)F)nn12` [Example 0985]: the “Physical data: logP” value was found to be 3.27.
Still for that read-out and setting: with `CC(C)(NC(=O)/C=C/c1c(-c2ccc(F)cc2Cl)nc2sc(C(F)(F)F)nn12)C(F)(F)F` [Example 0915] the figure was 4.11; with `CC(C)(C)c1nn2c(/C=C/C(=O)NC3CCCCC3)c(-c3ccccc3Cl)nc2s1` [Example 0810], 3.79.
In the case of `CCC(NC(=O)C=Cc1c(-c2cccc(C(F)(F)F)c2)nc2sc(C(F)(F)F)nn12)C1CCCCC1` (stereo not drawn) [Example 0409], the “Physical data: log P” value is recorded as 5.48.
Same read-out and setting: with `CC(C)(C)NC(=O)/C=C/c1c(-c2cccc(C(F)(F)F)c2)nc2sc(C(F)(F)F)nn12` [Example 0373] the figure was 4.41.
On to `O=C(/C=C/c1c(-c2cccc(Cl)c2)nc2sc(C(F)(F)F)nn12)N1CCCCC1` [Example 0141], for which the “Physical data (logP)” value worked out at 4.37.
Consider `CC(ONC(=O)/C=C/c1c(-c2cccc(C(F)(F)F)c2)nc2sc(C(F)(F)F)nn12)c1ccccc1` (stereo not drawn) [Example 0426], for which the “Physical data: log P” value was determined as 4.37.
Same read-out and setting: with `COCC(C)NC(=O)/C=C/c1c(-c2ccc(F)cc2)nc2sc(C(F)(F)F)nn12` (stereo not drawn) [Example 0311] the figure was 3.07.
As for `O=C(/C=C/c1c(-c2ccc(Cl)cc2)nc2sc(C(F)(F)F)nn12)NC1CCCC1` [Example 013], the “Physical data (logP)” value is recorded as 4.03.
Take `COCc1nn2c(/C=C/C(=O)Nc3ccc(Cl)cc3)c(-c3ccccc3Cl)nc2s1` [Example 0833]: the “Physical data: logP” value is 3.87.
For `COc1ccc(-c2nc3sc(C(F)(F)F)nn3c2/C=C/C(=O)NC2CCCC2)cc1OC` [Example 0658], the “Physical data: logP” value was determined as 3.26.
Still for that read-out and setting: with `CC(C)(C)c1nn2c(/C=C/C(=O)NC3CCC3)c(-c3ccccc3Cl)nc2s1` [Example 0808] the figure was 3.52.
Take `CC(C)(C)NC(=O)/C=C/c1c(-c2ccc(Cl)cc2)nc2sc(C(F)(F)F)nn12` [Example 0009]: the “Physical data (logP)” value is on record as 4.23.
Regarding `CCC(C)NC(=O)/C=C/c1c(-c2cccc(C(F)(F)F)c2)nc2sc(C(F)(F)F)nn12` (stereo not drawn) [Example 0380], the “Physical data: log P” value turned out to be 4.18.
With `O=Cc1c(-c2ccc(-c3ccc(Cl)cc3)cc2)nc2sc(C(F)(F)F)nn12` [IVA119], the “Physical data (logP)” value turned out to be 4.63.
`CC(C)NC(=O)/C=C/c1c(-c2ccccc2Cl)nc2scc(-c3ccccc3)n12` [Example 0904]: the “Physical data: logP” value was 2.77.

The series is the same for the next values; noted with them: HPLC gradient method, acetonitrile/0.1% strength aqueous phosphoric acid or formic acid; preparation examples; read-out: log P.
With `O=C(O)/C=C/c1c(-c2ccc(Cl)cc2Cl)nc2sc(C(F)(F)F)nn12` [VA-1, (2E)-3-[6-(2,4-Dichlorophenyl)-2-(trifluoromethyl)imidazo[2,1-b][1,3,4]thiadiazol-5-yl]acrylic Acid], the chromatographic logP was 3.15.
